A short description of assay [1]: Inhibition of rice alpha-glucosidase using p-nitrophenyl glycoside as substrate assessed as release of p-nitrophenol measured by spectrometric assay. Details: species or system Oryza sativa; call rule not given here. The following applies: for pIC50: read-out: IC50.
Assay [2] in a line: Inhibition of rat intestinal maltase using maltose as substrate assessed as release of D-glucose measured by spectrometric assay.
The target of assay [3] is T1, Sucrase-isomaltase, intestinal (Rattus norvegicus, UniProt P23739). The assay can be described thus: Inhibition of rat intestinal sucrase using p-nitrophenyl glycoside as substrate assessed as release of p-nitrophenol measured by spectrometric assay.
For assay [4], the target named is T1, Sucrase-isomaltase, intestinal. The assay can be described thus: Inhibition of rat intestinal isomaltase using p-nitrophenyl glycoside as substrate assessed as release of p-nitrophenol measured by spectrometric assay.
A short description of assay [5]: Inhibition of almond beta-glucosidase using p-nitrophenyl glycoside as substrate assessed as release of p-nitrophenol measured by spectrometric assay. Details: species or system Prunus dulcis.
For assay [6], the system named is Prunus dulcis. The experiment in a line: Inhibition of almond beta-glucosidase using p-nitrophenyl glycoside as substrate assessed as release of p-nitrophenol at 1000 uM measured by spectrometric assay relative to control.
Assay [7] is described as follows: Inhibition of bovine liver beta-glucosidase using p-nitrophenyl glycoside as substrate assessed as release of p-nitrophenol measured by spectrometric assay. Details: species or system Bos taurus.
Assay [8] is filed under the species Bos taurus. The assay can be described thus: Inhibition of bovine liver beta-glucosidase using p-nitrophenyl glycoside as substrate assessed as release of p-nitrophenol at 1000 uM measured by spectrometric assay relative to control. The assay is classed as tissue-based.
The target in assay [9] is Alpha-galactosidase (Coffea arabica, UniProt Q42656). The experiment in a line: Inhibition of coffee beans alpha-galactosidase using p-nitrophenyl glycoside as substrate assessed as release of p-nitrophenol measured by spectrometric assay.
The nature of assay [10]: Inhibition of bovine liver beta-galactosidase using p-nitrophenyl glycoside as substrate assessed as release of p-nitrophenol measured by spectrometric assay. The assay is classed as tissue-based, Bos taurus. The following applies: for pIC50: read-out: IC50.
The species named for assay [11] is Bos taurus. The assay can be described thus: Inhibition of bovine liver beta-galactosidase using p-nitrophenyl glycoside as substrate assessed as release of p-nitrophenol at 1000 uM measured by spectrometric assay relative to control.
Assay [12] can be described thus: Inhibition of jack bean alpha-mannosidase using p-nitrophenyl glycoside as substrate assessed as release of p-nitrophenol measured by spectrometric assay. Set-up: species or system Canavalia ensiformis.
The target in assay [13] is T2, Alpha-mannosidase (Canavalia ensiformis) (UniProt C0HJB3).
T2 sequence (whole entry): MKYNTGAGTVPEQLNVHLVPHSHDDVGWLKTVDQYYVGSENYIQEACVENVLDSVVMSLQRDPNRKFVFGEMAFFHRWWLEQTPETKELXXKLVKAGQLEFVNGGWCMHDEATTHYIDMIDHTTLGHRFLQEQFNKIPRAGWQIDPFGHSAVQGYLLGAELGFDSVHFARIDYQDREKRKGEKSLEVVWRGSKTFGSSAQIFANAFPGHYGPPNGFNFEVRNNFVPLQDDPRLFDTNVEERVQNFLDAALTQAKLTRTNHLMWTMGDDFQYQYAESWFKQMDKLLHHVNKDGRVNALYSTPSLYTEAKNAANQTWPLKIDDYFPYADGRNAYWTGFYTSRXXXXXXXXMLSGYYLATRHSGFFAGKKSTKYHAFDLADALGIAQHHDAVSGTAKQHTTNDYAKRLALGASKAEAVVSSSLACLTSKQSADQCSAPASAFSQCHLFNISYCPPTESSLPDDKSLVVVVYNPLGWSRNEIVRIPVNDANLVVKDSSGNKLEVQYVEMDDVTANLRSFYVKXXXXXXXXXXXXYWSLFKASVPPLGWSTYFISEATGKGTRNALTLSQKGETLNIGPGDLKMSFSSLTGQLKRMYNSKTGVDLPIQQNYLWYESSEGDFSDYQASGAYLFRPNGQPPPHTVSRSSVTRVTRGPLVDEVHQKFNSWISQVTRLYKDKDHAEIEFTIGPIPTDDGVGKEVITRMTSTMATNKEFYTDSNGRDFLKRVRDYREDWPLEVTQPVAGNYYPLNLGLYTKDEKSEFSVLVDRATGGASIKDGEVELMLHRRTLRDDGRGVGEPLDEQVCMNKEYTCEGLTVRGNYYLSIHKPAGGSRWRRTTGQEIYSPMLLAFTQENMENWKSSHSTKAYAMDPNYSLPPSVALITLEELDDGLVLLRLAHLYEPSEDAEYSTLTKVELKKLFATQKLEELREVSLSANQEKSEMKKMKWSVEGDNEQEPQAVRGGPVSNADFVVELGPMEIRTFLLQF
The experiment in a line: Inhibition of jack bean alpha-mannosidase using p-nitrophenyl glycoside as substrate assessed as release of p-nitrophenol at 1000 uM measured by spectrometric assay relative to control.

Assay [14] in a line: Inhibition of snail beta-mannosidase using p-nitrophenyl glycoside as substrate assessed as release of p-nitrophenol measured by spectrometric assay. Details: species or system Helix pomatia.
In assay [15] the test system is Helix pomatia. The experiment in a line: Inhibition of snail beta-mannosidase using p-nitrophenyl glycoside as substrate assessed as release of p-nitrophenol at 1000 uM measured by spectrometric assay relative to control.
In assay [16] the target is T3, Tissue alpha-L-fucosidase (Bos taurus, UniProt Q2KIM0).
T3 sequence (Q2KIM0 whole entry): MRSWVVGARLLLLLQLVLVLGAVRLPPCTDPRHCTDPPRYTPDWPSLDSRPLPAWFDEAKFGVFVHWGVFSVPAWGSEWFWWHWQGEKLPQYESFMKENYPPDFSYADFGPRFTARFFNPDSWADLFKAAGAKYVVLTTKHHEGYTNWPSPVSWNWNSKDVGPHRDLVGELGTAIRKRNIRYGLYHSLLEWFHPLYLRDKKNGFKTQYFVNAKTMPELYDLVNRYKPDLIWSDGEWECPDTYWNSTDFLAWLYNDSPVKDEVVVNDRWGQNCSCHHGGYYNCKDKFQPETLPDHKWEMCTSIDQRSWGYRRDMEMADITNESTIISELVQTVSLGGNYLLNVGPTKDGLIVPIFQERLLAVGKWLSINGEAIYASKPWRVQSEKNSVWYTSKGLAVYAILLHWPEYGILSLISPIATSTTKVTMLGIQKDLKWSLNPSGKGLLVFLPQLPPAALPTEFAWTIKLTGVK
The assay can be described thus: Inhibition of bovine kidney alpha-L-fucosidase using p-nitrophenyl glycoside as substrate assessed as release of p-nitrophenol measured by spectrometric assay.

In assay [17] the target is T4, Tissue alpha-L-fucosidase (Bos taurus) (UniProt Q2KIM0).
T4 sequence (whole entry): T3 sequence (Q2KIM0 whole entry)
The assay can be described thus: Inhibition of bovine kidney alpha-L-fucosidase using p-nitrophenyl glycoside as substrate assessed as release of p-nitrophenol at 1000 uM measured by spectrometric assay relative to control. The class given is tissue-based.

Assay [18] is described as follows: Inhibition of porcine kidney alpha-trehalase using p-nitrophenyl glycoside as substrate assessed as release of p-nitrophenol measured by spectrometric assay. Details: species or system Sus scrofa. The following applies: for pIC50: read-out: IC50.
Assay [19] in a line: Inhibition of Aspergillus niger amyloglucosidase using p-nitrophenyl glycoside as substrate assessed as release of p-nitrophenol measured by spectrometric assay.
The subject of assay [20] is Aspergillus niger. The experiment in a line: Inhibition of Aspergillus niger amyloglucosidase using p-nitrophenyl glycoside as substrate assessed as release of p-nitrophenol at 1000 uM measured by spectrometric assay relative to control.
A short description of assay [21]: Inhibition of Penicillium decumbens alpha-L-rhamnosidase using p-nitrophenyl glycoside as substrate assessed as release of p-nitrophenol measured by spectrometric assay.
For assay [22], the system named is Penicillium decumbens. The experiment in a line: Inhibition of Penicillium decumbens alpha-L-rhamnosidase using p-nitrophenyl glycoside as substrate assessed as release of p-nitrophenol at 1000 uM measured by spectrometric assay relative to control.
The target in assay [23] is Beta-glucuronidase (Escherichia coli (strain K12), UniProt P05804). The assay can be described thus: Inhibition of Escherichia coli beta-glucuronidase using p-nitrophenyl glycoside as substrate assessed as release of p-nitrophenol measured by spectrometric assay.
Assay [24] deals with Beta-glucuronidase (Escherichia coli (strain K12)) (UniProt P05804). The experiment in a line: Inhibition of Escherichia coli beta-glucuronidase using p-nitrophenyl glycoside as substrate assessed as release of p-nitrophenol at 1000 uM measured by spectrometric assay relative to control.
Assay [25] addresses Maltase-glucoamylase (Homo sapiens, UniProt O43451). The assay can be described thus: Inhibition of human alpha-glucosidase.
For assay [26], the target named is Alpha-galactosidase (Coffea arabica) (UniProt Q42656). The assay can be described thus: Inhibition of coffee beans alpha-galactosidase using p-nitrophenyl glycoside as substrate assessed as release of p-nitrophenol at 1000 uM measured by spectrometric assay relative to control.
Assay [27] can be described thus: Inhibition of beta-glucosidase (unknown origin). Set-up: species or system Homo sapiens.
A short description of assay [28]: Inhibition of Agrobacterium sp beta-glucosidase using p-nitrophenyl beta-glucoside as substrate assessed as release of p-nitrophenol measured by plate reader assay.
The species named for assay [29] is Sus scrofa. The experiment in a line: Inhibition of porcine kidney alpha-trehalase using p-nitrophenyl glycoside as substrate assessed as release of p-nitrophenol at 1000 uM measured by spectrometric assay relative to control.
Assay [30] is filed under the species Rattus norvegicus. The assay can be described thus: Inhibition of rat intestinal maltase using maltose as substrate assessed as release of D-glucose at 1000 uM measured by spectrometric assay.
Assay [31] concerns Oryza sativa. The assay can be described thus: Inhibition of rice alpha-glucosidase using p-nitrophenyl glycoside as substrate assessed as release of p-nitrophenol at 1000 uM measured by spectrometric assay.

pIC50: −log10 of the molar value.

T1 sequence (P23739 1-1013 limits assumed): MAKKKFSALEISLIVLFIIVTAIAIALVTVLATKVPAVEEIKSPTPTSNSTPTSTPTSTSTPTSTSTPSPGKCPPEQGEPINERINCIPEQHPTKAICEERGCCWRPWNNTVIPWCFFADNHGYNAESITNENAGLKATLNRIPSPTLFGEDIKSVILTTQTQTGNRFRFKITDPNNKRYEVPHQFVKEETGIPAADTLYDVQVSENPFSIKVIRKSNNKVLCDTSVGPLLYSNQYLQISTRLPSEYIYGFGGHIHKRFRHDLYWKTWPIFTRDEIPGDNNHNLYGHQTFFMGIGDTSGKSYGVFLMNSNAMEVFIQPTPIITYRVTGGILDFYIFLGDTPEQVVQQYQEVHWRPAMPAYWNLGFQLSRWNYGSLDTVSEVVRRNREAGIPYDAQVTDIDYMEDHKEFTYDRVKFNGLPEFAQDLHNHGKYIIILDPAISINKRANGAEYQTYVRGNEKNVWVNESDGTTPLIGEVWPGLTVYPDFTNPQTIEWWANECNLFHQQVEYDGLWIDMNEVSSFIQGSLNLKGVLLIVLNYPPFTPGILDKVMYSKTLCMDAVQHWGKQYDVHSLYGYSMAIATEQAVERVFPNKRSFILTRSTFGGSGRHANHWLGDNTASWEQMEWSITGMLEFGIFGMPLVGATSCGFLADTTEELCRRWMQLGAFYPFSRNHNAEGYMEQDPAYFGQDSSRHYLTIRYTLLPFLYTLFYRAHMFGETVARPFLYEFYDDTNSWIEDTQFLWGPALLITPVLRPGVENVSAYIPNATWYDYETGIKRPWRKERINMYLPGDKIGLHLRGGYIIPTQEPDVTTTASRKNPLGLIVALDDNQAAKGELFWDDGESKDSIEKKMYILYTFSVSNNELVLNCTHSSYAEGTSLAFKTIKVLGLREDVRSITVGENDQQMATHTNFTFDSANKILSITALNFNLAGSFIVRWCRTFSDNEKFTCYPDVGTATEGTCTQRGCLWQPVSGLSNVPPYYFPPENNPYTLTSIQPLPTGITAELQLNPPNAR
T1 sequence (P23739 1014-1841 limits assumed): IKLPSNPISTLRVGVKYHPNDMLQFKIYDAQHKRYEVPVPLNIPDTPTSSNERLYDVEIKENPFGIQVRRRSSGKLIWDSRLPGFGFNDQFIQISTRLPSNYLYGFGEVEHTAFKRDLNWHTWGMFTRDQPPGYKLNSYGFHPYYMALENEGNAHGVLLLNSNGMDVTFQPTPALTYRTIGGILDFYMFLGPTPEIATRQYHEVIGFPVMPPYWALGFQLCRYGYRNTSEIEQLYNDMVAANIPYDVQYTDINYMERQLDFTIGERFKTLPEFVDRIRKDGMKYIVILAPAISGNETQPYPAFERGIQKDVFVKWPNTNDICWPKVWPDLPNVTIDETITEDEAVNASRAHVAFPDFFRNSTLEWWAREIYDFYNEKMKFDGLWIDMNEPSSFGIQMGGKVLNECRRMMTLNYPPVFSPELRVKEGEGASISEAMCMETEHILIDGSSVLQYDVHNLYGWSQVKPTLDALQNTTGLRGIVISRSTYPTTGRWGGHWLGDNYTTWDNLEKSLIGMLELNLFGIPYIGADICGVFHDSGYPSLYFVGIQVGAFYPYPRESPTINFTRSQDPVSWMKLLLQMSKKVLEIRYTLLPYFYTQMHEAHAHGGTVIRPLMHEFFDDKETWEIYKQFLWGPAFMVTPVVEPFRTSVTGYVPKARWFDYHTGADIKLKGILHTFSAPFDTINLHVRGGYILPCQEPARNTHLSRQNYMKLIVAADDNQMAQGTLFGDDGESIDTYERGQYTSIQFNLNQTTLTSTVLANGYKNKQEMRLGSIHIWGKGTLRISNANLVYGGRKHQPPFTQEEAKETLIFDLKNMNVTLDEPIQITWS
Sequence of Beta-glucuronidase (P05804 whole entry): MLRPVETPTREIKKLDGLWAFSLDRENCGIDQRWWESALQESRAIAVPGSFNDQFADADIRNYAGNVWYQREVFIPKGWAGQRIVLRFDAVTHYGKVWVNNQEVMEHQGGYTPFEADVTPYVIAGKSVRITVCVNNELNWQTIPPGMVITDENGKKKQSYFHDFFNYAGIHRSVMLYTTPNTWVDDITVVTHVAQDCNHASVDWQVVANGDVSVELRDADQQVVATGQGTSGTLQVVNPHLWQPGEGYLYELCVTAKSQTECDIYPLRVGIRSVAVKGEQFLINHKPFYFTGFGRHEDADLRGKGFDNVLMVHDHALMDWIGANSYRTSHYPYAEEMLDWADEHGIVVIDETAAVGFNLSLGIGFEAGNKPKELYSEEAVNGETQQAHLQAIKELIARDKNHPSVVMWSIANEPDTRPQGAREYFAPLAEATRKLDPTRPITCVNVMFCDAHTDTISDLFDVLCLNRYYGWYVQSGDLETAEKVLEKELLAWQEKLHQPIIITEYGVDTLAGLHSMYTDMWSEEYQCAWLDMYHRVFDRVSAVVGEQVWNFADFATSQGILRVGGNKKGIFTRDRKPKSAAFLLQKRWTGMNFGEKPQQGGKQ
Sequence of Beta-glucuronidase (Escherichia coli (strain K12)) (P05804 whole entry, looked up): as the sequence (P05804 whole entry) above
Sequence of Alpha-galactosidase (Q42656 whole entry): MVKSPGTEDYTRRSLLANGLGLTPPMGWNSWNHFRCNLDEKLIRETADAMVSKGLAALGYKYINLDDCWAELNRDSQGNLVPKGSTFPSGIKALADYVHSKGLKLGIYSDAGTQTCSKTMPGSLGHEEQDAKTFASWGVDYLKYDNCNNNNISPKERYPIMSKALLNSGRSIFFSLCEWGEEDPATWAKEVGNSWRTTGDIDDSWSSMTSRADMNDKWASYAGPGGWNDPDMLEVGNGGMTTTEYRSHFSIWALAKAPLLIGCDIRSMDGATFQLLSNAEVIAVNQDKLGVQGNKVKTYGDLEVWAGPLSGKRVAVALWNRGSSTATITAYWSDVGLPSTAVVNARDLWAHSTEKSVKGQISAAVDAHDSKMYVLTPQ
Sequence of Alpha-galactosidase (Coffea arabica) (Q42656 16-378 limits assumed): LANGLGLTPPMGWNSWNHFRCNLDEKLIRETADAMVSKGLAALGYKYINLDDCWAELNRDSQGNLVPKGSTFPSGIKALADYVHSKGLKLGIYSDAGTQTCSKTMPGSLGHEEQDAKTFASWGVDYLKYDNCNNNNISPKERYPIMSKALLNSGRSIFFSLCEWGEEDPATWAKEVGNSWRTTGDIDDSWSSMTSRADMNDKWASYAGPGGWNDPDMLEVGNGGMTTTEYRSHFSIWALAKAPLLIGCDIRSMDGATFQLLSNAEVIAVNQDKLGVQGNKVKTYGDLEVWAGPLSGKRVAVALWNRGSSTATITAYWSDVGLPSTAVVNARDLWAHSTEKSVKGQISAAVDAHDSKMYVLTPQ

As to `C[C@]1(CO)NC[C@H](O)[C@@H](O)[C@@H]1O.Cl`, the pIC50 is 7.81 in assay [1]; 7.28 in assay [2]; 6.70 in assay [3] (read-out: IC50); 6.02 in assay [4] (read-out: IC50); 5.12 in assay [9] (read-out: IC50); 4.38 in [18]. The pIC50 in assay [25] was 6.00. Further, the IC50 entry in [5], in assay [7], in assay [10], in assay [12], in assay [14] and in assay [16] was “Not Active” each time. The IC50 result in [19], in assay [21] and in assay [23] was “Not Active” each time. Also, the inhibition is 6.7% in assay [6]; 9.5% in assay [8]; 11.9% in assay [11]; 2.1% in [13]; 2% in assay [15]; 0% in assay [17]. Further, the inhibition turned out to be 8% in assay [20], 2.4% in assay [22] and 0% in [24].
For `OC[C@H]1NC[C@H](O)[C@@H](O)[C@@H]1O` [DUVOGLUSTAT], the pIC50 is 6.36 in assay [1]; 6.92 in assay [2]; 4.32 in assay [18]; 3.12 in [19] (read-out: IC50); 6.57 in [27]. Moreover, the IC50 entry in assay [5], in assay [7], in assay [9], in [10], in assay [12] and in assay [14] was “Not Active” throughout. For the same molecule, the IC50 entry in assay [16], in [21] and in [23] was “Not Active” in each case. Besides, the inhibition worked out at 12.1% in [6]; 4.6% in assay [8]; 13.7% in assay [26]; 0% in assay [11]; 17.4% in assay [13]; 4.8% in assay [15]. In addition, the inhibition worked out at 1% in assay [17], 45.6% in assay [22] and 0.8% in assay [24].
For the molecule `C#Cc1ccc(C(=O)OCCCCCCN2C[C@H](O)[C@@H](O)[C@H](O)[C@H]2CO)cc1`, the pIC50 in assay [28] was 5.66.
On to `CCCCCCCCCCCC[C@@]1(CO)NC[C@H](O)[C@@H](O)[C@@H]1O.Cl`, for which the IC50 entry in assay [1], in assay [3], in [4], in assay [5], in assay [9] and in assay [12] was “Not Active” each time. For the same molecule, the IC50 result in assay [14], in [16], in [18], in assay [19], in assay [21] and in assay [23] was “Not Active” in each case. The pIC50 in assay [2] was 3.18; in assay [7] (read-out: IC50), 4.33; in assay [10], 4.77. Further, the inhibition came to 7.6% in assay [6]; 0% in [26]; 3.3% in [13]; 0.5% in [15]; 0% in assay [17]; 0% in assay [29]. Besides, the inhibition worked out at 0% in assay [20]; 1.2% in assay [22]; 13.9% in [24]; 2.3% in assay [30]; 33.6% in assay [31].
As to `CCCCCCCCCCC[C@@]1(CO)NC[C@H](O)[C@@H](O)[C@@H]1O.Cl`, the IC50 result in assay [1], in assay [3], in [4], in assay [5], in assay [7] and in assay [9] was “Not Active” each time. Moreover, the IC50 result in assay [12], in [14], in assay [16], in assay [18], in assay [19] and in assay [21] was “Not Active” in each case. Besides, the IC50 result in assay [23] is “Not Active”. Moreover, the negative logarithm of the IC50 (pIC50) is 3.12 in assay [2] and 4.00 in [10]. Besides, the inhibition came to 5.2% in [6]; 29.8% in [8]; 1.6% in assay [26]; 3.3% in [13]; 0% in assay [15]; 1.1% in [17]. Moreover, the inhibition in assay [29] came out at 0%; in assay [20], 0%; in assay [22], 4.8%; in [24], 5.3%; in assay [30] it was 4.6%; in assay [31], 17.6%.

Usually pIC50 stands for the negative decadic logarithm of the IC50, by convention in mol/L. Usually inhibition stands for how much of the control response was suppressed.

(Values after ChEMBL document CHEMBL4828725 (Eur J Med Chem, 2021).)
